The source of these data is patent US20100173968A1, “SUB-TYPE SELECTIVE AZABICYCLOALKANE DERIVATIVES” (TARGACEPT, INC., priority 2007, published 2010).

Structures are written as SMILES. Like-named read-outs stand apart in the source and are kept apart here.

The target in one test is α4β2 nAChR Subtype (Rattus norvegicus, UniProt P09483+P12390). Kind of test: Radioligand binding at α4β2 nAChR subtype, inhibition of [3H]nicotine binding, rat cerebral cortex membranes. Conditions: [3H]nicotine 5 nM. As to the method: The [^3H]nicotine (Specific Activity=81.5 Ci/mmol) was obtained from NEN Research Products. The binding of [^3H]nicotine was measured using a 3 h incubation at 4° C. […] Each filter was washed with ice-cold buffer (3×1 mL).
Each concentration was replicated in triplicate.

The next test has as its target Human α4β2 (Homo sapiens, UniProt P17787+P43681). The test is described as follows: Binding at human α4β2 (Ki); method not described.
The nature of test [1]: NOR (novel object recognition) task. The test is classed as in vivo. The settings on record: orally, in rats. As to the method:
Certain exemplified compounds were assessed in the NOR (novel object recognition) task. This illustrates efficacy and potency of the compounds of the present invention in treating cognitive deficits, attention disorders, and dementias, and the potential of these compounds for human therapy.

The next test has as its target α7 nAChR Subtype (Rattus norvegicus, UniProt Q05941). The test is described as follows: Radioligand binding at α7 nAChR subtype, inhibition of [3H]MLA binding, rat hippocampus membranes (HTS at 5 μM, then Ki). The settings on record: for inhibition at 5 µM: read-out: α7 HTS outcome (α7 Ki).
[2] abbreviates: read-out: α7 Ki, [3H]MLA 5 nM, rat hippocampus.

Sequence of α7 nAChR Subtype (Q05941 23-502): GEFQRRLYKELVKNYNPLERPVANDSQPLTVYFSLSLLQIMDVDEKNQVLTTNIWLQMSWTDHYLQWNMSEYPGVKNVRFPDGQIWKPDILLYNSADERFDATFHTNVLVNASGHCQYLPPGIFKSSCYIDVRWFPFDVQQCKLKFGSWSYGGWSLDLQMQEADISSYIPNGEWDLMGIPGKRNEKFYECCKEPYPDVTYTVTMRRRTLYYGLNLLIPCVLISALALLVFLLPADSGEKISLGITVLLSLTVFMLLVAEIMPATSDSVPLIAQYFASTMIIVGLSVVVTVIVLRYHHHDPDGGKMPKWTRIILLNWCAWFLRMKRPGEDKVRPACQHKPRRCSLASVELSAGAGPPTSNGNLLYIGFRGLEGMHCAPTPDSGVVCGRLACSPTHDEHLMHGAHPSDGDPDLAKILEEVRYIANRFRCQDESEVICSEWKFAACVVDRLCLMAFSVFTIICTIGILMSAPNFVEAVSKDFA
Sequence of Human α4β2 (P43681 29-627 limits assumed): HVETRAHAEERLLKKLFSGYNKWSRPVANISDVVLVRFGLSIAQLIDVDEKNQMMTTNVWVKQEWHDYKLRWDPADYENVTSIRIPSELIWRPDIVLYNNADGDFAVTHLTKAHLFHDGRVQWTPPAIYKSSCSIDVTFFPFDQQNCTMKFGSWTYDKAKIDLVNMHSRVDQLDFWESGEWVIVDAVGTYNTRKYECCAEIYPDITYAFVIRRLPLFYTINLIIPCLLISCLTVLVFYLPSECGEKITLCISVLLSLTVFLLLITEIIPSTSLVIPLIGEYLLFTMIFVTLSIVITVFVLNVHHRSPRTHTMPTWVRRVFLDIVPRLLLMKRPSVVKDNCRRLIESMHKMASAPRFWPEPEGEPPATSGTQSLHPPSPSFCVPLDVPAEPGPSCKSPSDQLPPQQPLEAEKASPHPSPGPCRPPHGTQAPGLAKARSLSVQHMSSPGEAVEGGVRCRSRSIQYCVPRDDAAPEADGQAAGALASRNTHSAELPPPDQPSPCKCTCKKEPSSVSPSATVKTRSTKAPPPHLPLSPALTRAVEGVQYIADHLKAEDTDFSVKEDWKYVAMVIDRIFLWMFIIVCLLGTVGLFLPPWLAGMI
Sequence of Human α4β2 (P17787 26-502): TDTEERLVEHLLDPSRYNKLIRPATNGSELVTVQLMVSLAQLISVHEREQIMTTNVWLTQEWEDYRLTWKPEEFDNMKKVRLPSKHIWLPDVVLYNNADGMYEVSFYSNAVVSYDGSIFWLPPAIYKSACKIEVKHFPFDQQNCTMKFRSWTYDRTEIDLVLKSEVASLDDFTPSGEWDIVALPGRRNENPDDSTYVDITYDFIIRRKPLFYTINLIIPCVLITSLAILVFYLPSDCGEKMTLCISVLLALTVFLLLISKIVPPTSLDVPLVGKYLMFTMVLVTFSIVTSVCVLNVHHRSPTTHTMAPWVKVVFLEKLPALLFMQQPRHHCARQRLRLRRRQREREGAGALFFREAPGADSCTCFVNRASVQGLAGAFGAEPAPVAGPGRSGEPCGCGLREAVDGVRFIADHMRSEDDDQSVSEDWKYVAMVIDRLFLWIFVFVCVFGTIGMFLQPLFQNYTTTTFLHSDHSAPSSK
Sequence of α4β2 nAChR Subtype (P09483 31-630): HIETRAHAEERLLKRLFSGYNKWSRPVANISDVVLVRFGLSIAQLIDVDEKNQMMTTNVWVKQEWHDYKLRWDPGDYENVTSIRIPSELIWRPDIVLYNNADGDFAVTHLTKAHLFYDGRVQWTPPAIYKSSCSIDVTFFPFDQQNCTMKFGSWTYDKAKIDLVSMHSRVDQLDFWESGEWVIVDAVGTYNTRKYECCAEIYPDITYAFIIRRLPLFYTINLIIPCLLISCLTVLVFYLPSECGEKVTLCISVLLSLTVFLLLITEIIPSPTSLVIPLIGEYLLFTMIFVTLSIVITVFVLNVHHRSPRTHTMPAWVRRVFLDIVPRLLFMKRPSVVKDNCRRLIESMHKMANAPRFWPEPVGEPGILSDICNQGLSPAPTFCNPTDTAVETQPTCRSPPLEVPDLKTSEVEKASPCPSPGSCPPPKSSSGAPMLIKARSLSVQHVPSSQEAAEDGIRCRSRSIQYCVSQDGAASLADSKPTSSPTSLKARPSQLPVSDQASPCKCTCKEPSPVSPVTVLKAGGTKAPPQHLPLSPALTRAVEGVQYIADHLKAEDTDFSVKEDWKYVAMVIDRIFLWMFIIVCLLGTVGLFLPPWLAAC
Sequence of α4β2 nAChR Subtype (P12390 25-500): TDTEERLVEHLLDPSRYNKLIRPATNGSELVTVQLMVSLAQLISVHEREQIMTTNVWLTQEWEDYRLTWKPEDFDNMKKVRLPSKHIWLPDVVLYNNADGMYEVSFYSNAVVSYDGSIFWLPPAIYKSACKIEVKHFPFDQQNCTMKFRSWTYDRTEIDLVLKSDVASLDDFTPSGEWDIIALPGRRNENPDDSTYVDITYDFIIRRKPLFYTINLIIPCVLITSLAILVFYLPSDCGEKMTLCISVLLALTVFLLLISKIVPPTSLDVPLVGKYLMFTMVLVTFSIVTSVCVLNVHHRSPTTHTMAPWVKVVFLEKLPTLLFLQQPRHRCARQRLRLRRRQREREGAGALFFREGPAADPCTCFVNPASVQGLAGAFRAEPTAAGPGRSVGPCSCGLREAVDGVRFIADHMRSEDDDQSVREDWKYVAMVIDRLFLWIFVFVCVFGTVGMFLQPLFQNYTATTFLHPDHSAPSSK

The term Ki denotes a measure of affinity in units of concentration, obtained from inhibition or displacement. Turning to `COC(=O)C1C[C@H]2CNC[C@H]2C1` (mixture of isomers) [Compound A, methyl 3-azabicyclo[3.3.0]octane-7-carboxylate], the inhibitory constant (Ki) is 20 nM on α4β2 nAChR Subtype (read-out: Rat α4β2 Ki), 8 nM on Human α4β2 and more than 10000 nM at α7 nAChR Subtype. Besides, in test [1] (dose of 0.1 mg/kg, FIG. 1), the “activity in the NOR task (recognition index)” value was “active”.

Consider `CC1COCC(C)N1C(=O)C1C[C@H]2CNC[C@H]2C1` (some centres unmarked) [(3-azabicyclo[3.3.0]oct-7-yl)(2,6-dimethylmorpholin-1-yl)methanone], for which the Ki on α4β2 nAChR Subtype (read-out: Rat α4β2 Ki) was found to be 57.5 nM; on Human α4β2, 71.1 nM. In addition, on α7 nAChR Subtype, the inhibition at 5 µM is less than 50%.

As to `CNC(=O)C1CC2CNCC(C2)C1` (centres unmarked) [Compound B, N-methyl-3-azabicyclo[3.3.1]nonane-7-carboxamide], the Ki at α4β2 nAChR Subtype (read-out: Rat α4β2 Ki) is 6 nM; on Human α4β2 it was 2 nM; at α7 nAChR Subtype, more than 10000 nM. Further, the “activity in the NOR task (recognition index)” value in test [1] (dose of 1 mg/kg, FIG. 2) was “active”.

With `CN(C)C(=O)C1=C[C@@H]2CNC[C@@H]2C1` [N,N-dimethyl-3-azabicyclo[3.3.0]oct-6-ene-7-carboxamide], the Ki was 60 nM at α4β2 nAChR Subtype (Rat α4β2 Ki), 164 nM on Human α4β2 and more than 10000 nM at α7 nAChR Subtype.

With `CN(C)C(=O)C1CC2CNCC(C2)C1` (centres unmarked) [N,N-dimethyl-3-azabicyclo[3.3.1]nonane-7-carboxamide], the values for the Ki at α4β2 nAChR Subtype (Rat α4β2 Ki), on Human α4β2 and at α7 nAChR Subtype were 78 nM, 54 nM and more than 10000 nM, respectively.

Regarding `O=C(NCC(F)(F)F)C1CC2CNCC(C2)C1` (centres unmarked) [N-(2,2,2-trifiuoroethyl)-3-azabicyclo[3.3.1]nonane-7-carboxamide], the Ki is 40.8 nM on α4β2 nAChR Subtype (read-out: Rat α4β2 Ki), 22.8 nM on Human α4β2 and more than 10000 nM at α7 nAChR Subtype (setting [2]).

For `O=C(NCCF)C1CC2CNCC(C2)C1` (centres unmarked) [N-(2-fluoroethyl)-3-azabicyclo[3.3.1]nonane-7-carboxamide], the Ki is 122 nM on α4β2 nAChR Subtype (Rat α4β2 Ki), 13.5 nM at Human α4β2 and more than 10000 nM at α7 nAChR Subtype.

For `O=C(Nc1ccccc1F)C1CC2CNCC(C2)C1` (centres unmarked) [N-(2-fluorophenyl)-3-azabicyclo[3.3.1]nonane-7-carboxamide], the Ki at α4β2 nAChR Subtype (read-out: Rat α4β2 Ki) was 63 nM; on Human α4β2 it was 24.1 nM. At α7 nAChR Subtype, the inhibition at 5 µM was less than 50%.

`COCCNC(=O)C1CC2CNCC(C2)C1` (centres unmarked) [N-(2-methoxyethyl)-3-azabicyclo[3.3.1]nonane-7-carboxamide]: the Ki turned out to be 457 nM at α4β2 nAChR Subtype (read-out: Rat α4β2 Ki) and 774 nM on Human α4β2. The inhibition at 5 µM at α7 nAChR Subtype is less than 50%.

For `O=C(NC1CC=CC1)C1CC2CNCC(C2)C1` (centres unmarked) [N-(3-cyclopentenyl)-3-azabicyclo[3.3.1]nonane-7-carboxamide], the Ki on α4β2 nAChR Subtype (read-out: Rat α4β2 Ki) came out at 45.3 nM; at Human α4β2, 24.3 nM. For the same compound, the inhibition at 5 µM on α7 nAChR Subtype was less than 50%.

For `O=C(NCCCF)C1CC2CNCC(C2)C1` (centres unmarked) [N-(3-fluoropropyl)-3-azabicyclo[3.3.1]nonane-7-carboxamide], the Ki at α4β2 nAChR Subtype (read-out: Rat α4β2 Ki) worked out at 44.7 nM; at Human α4β2, 23.2 nM. Also, the inhibition at 5 µM at α7 nAChR Subtype was less than 50%.

As to `O=C(Nc1ccc(F)cc1)C1CC2CNCC(C2)C1` (centres unmarked) [N-(4-fluorophenyl)-3-azabicyclo[3.3.1]nonane-7-carboxamide], the Ki on α4β2 nAChR Subtype (read-out: Rat α4β2 Ki) is 92.2 nM; on Human α4β2, 32.1 nM. The inhibition at 5 µM on α7 nAChR Subtype was less than 50%.

Regarding `O=C(NC1CCC1)C1CC2CNCC(C2)C1` (centres unmarked) [N-(cyclobutyl)-3-azabicyclo[3.3.1]nonane-7-carboxamide], the Ki was 135 nM at α4β2 nAChR Subtype (read-out: Rat α4β2 Ki) and 308 nM on Human α4β2. Further, the inhibition at 5 µM at α7 nAChR Subtype is less than 50%.

As for `O=C(NCC1CC1)C1CC2CNCC(C2)C1` (centres unmarked) [N-(cyclopropylmethyl)-3-azabicyclo[3.3.1]nonane-7-carboxamide], the Ki at α4β2 nAChR Subtype (read-out: Rat α4β2 Ki) turned out to be 69.1 nM; at Human α4β2, 92.2 nM. Besides, the inhibition at 5 µM on α7 nAChR Subtype was less than 50%.

With `C=CCNC(=O)C1CC2CNCC(C2)C1` (centres unmarked) [N-allyl-3-azabicyclo[3.3.1]nonane-7-carboxamide], the Ki was found to be 30.6 nM on α4β2 nAChR Subtype (read-out: Rat α4β2 Ki) and 4.3 nM on Human α4β2. Moreover, the inhibition at 5 µM on α7 nAChR Subtype is less than 50%.

With `O=C(NCc1ccccc1)C1CC2CNCC(C2)C1` (centres unmarked) [N-benzyl-3-azabicyclo[3.3.1]nonane-7-carboxamide], the Ki at α4β2 nAChR Subtype (read-out: Rat α4β2 Ki) came to 885 nM; on Human α4β2, 9 nM. Besides, on α7 nAChR Subtype, the inhibition at 5 µM was less than 50%.

For the compound `O=C(NC1CCCC1)C1CC2CNCC(C2)C1` (centres unmarked) [N-cyclopentyl-3-azabicyclo[3.3.1]nonane-7-carboxamide], the figures for the Ki on α4β2 nAChR Subtype (read-out: Rat α4β2 Ki) and at Human α4β2 were 102 nM and 26.8 nM, respectively. Also, at α7 nAChR Subtype, the inhibition at 5 µM is less than 50%.

With `O=C(NC1CC1)C1CC2CNCC(C2)C1` (centres unmarked) [N-cyclopropyl-3-azabicyclo[3.3.1]nonane-7-carboxamide], the Ki stood at 707 nM on α4β2 nAChR Subtype (read-out: Rat α4β2 Ki) and 15.6 nM on Human α4β2. In addition, the inhibition at 5 µM on α7 nAChR Subtype was less than 50%.

For the compound `CCNC(=O)C1CC2CNCC(C2)C1` (centres unmarked) [N-ethyl-3-azabicyclo[3.3.1]nonane-7-carboxamide], the results for the Ki at α4β2 nAChR Subtype (read-out: Rat α4β2 Ki) and on Human α4β2 were 13.5 nM and 6.4 nM, respectively. Besides, the inhibition at 5 µM at α7 nAChR Subtype was less than 50%.

In the case of `CC(C)NC(=O)C1CC2CNCC(C2)C1` (centres unmarked) [N-isopropyl-3-azabicyclo[3.3.1]nonane-7-carboxamide], the Ki at α4β2 nAChR Subtype (read-out: Rat α4β2 Ki) was determined as 82 nM; at Human α4β2, 31 nM. For the same compound, at α7 nAChR Subtype, the inhibition at 5 µM is less than 50%.

For `C#CCN(C)C(=O)C1C[C@H]2CNC[C@H]2C1` (some centres unmarked) [N-methyl-N-prapargyl-3-azabicyclo[3.3.0]octane-7-carboxamide], the Ki at α4β2 nAChR Subtype (read-out: Rat α4β2 Ki) is 139 nM; at Human α4β2, 52.5 nM; on α7 nAChR Subtype, not below 10000 nM.

For the compound `CCCNC(=O)C1CC2CNCC(C2)C1` (centres unmarked) [N-propyl-3-azabicyclo[3.3.1]nonane-7-carboxamide], the Ki on α4β2 nAChR Subtype (read-out: Rat α4β2 Ki) stood at 21.4 nM; on Human α4β2, 10.4 nM. Besides, the inhibition at 5 µM on α7 nAChR Subtype is less than 50%.

On to `CCC(C)NC(=O)C1CC2CNCC(C2)C1` (centres unmarked) [N-sec-butyl-3-azabicyclo[3.3.1]nonane-7-carboxamide], for which the Ki on α4β2 nAChR Subtype (read-out: Rat α4β2 Ki) was 272 nM; on Human α4β2 it was 42.8 nM; on α7 nAChR Subtype (setting [2]), more than 10000 nM.

On to `CC(C)(C)NC(=O)C1CC2CNCC(C2)C1` (centres unmarked) [N-tert-butyl-3-azabicyclo[3.3.1]nonane-7-carboxamide], for which the Ki at α4β2 nAChR Subtype (read-out: Rat α4β2 Ki) was 10.9 nM; on Human α4β2, 7.1 nM. For the same compound, the inhibition at 5 µM at α7 nAChR Subtype was less than 50%.

With `O=C(c1ccco1)[C@H]1C[C@H]2CNC[C@H]2C1` [cis-2-furanyl(3-azabicyclo[3.3.0]oct-7-yl)methanone], the values for the Ki on α4β2 nAChR Subtype (Rat α4β2 Ki) and on Human α4β2 were 11 nM and 13.2 nM, respectively. Also, on α7 nAChR Subtype, the inhibition at 5 µM was less than 50%.

In the case of `N#Cc1ccoc1C(=O)[C@H]1C[C@H]2CNC[C@H]2C1` [cis-3-cyanofuran-2-yl(3-azabicyclo[3.3.0]oct-7-yl)methanone], the inhibitory constant (Ki) on α4β2 nAChR Subtype (read-out: Rat α4β2 Ki) came to 14 nM; at Human α4β2, 25.7 nM. For the same compound, the inhibition at 5 µM at α7 nAChR Subtype is less than 50%.

As for `O=C(OC1CCOC1)C1C[C@H]2CNC[C@H]2C1` (some centres unmarked) [tetrahydrofuran-3-yl 3-azabicyolo[3.3.0]octane-7-carboxylate], the values for the Ki on α4β2 nAChR Subtype (read-out: Rat α4β2 Ki), on Human α4β2 and at α7 nAChR Subtype were 129 nM, 120 nM and more than 10000 nM, respectively.

Take `CCCCC(=O)[C@@H]1C[C@H]2CNC[C@H]2C1` [trans-1-(3-azabicyclo[3.3.0]oct-7-yl)-1-pentanone]: the Ki on α4β2 nAChR Subtype (read-out: Rat α4β2 Ki) stood at 108 nM; on Human α4β2, 186 nM. The inhibition at 5 µM at α7 nAChR Subtype was less than 50%.

For `C/C=C/C(=O)C1C[C@H]2CNC[C@H]2C1` (stereo partly drawn) [trans-1-(3-azabicyclo[3.3.0]oct-7-yl)-2-buten-1-one], the inhibitory constant (Ki) at α4β2 nAChR Subtype (Rat α4β2 Ki) is 15.4 nM; on Human α4β2, 29.7 nM; at α7 nAChR Subtype, more than 10000 nM.

On to `O=C(c1ccco1)[C@@H]1C[C@H]2CNC[C@H]2C1` [trans-2-furanyl(3-azabicyclo[3.3.0]oct-7-yl)methanone], for which the Ki worked out at 463 nM on α4β2 nAChR Subtype (Rat α4β2 Ki) and 226 nM on Human α4β2. At α7 nAChR Subtype, the inhibition at 5 µM is less than 50%.

As to `CN(C)C(=O)[C@@H]1C[C@H]2CNC[C@H]2C1` [trans-N,N-dimethyl-3-azabicyclo[3.3.0]octane-7-carboxamide], the Ki at α4β2 nAChR Subtype (Rat α4β2 Ki) turned out to be 28.7 nM; on Human α4β2 it was 114 nM. For the same compound, at α7 nAChR Subtype, the inhibition at 5 µM was less than 50%.
